Tested on: harmful plant species
Assay: Specific trial examples: binary compositions applied by the post-emergence method, synergistic effect according to Colby (Tables 3.1-3.2)
Assay type: in vivo
Description: When the observed efficacies already exceed the formal sum total of the values of the tests with individual applications, they also exceed the expected value according to Colby, which is calculated using the formula below and is likewise regarded as an indication of synergism (cf. S. R. Colby; in Weeds 15 (1967) p. 20 to 22):
Seeds or rhizome pieces of mono- and dicotyledonous weeds are placed in sandy loam in pots, covered with soil and grown in a greenhouse under good growth conditions (temperature, air humidity, water supply). Three weeks after sowing, the test plants are treated at the three-leaf stage with the compositions according to the invention. The compositions according to the invention formulated as spray powders or as emulsion concentrates are sprayed onto the green plant parts in various dosages with an application rate of 300 to 800 l/ha of water (equivalent).
The sum total of the effects of the individual applications is reported under E^A; Expected values according to Colby are each reported under E^C.
The rating period is reported in days after application (DAT).

## O=C(Nc1ccc(F)cc1F)c1cccnc1Oc1cccc(C(F)(F)F)c1 [(B2.18) Diflufenican]
28 DAT, g a.i./ha: r8 270, r9 90, r10 30, r11 15, r12 5
  Herbicidal action against Digitaria sanguinalis: 20%
28 DAT, g a.i./ha: r35 270, r36 90, r37 30, r38 15, r39 5, r40 1.67
  Herbicidal action against Setaria faberi: 0%
28 DAT, g a.i./ha: r51 270, r52 15, r53 5, r54 1.67
  Herbicidal action against Setaria viridis: 10%
28 DAT, g a.i./ha: r149 15, r150 5, r151 270, r152 90, r153 30
  Herbicidal action against Alopecurus myosuroides (sensitive biotype): 0%
28 DAT, g a.i./ha: r231 15, r232 5, r233 270
  Herbicidal action against Papaver rhoeas: 30%
28 DAT, g a.i./ha: r294 5, r295 90
  Herbicidal action against Veronica hederifolia: 60%
(Z32) 28 DAT, g a.i./ha: r372 270, r373 90, r374 30, r375 5
  Herbicidal action against Echinochloa crus-galli: 10%
(Z90) 14 DAT, g a.i./ha: r533 16, r534 4, r535 1, r536 90, r537 30
  Herbicidal action against Centaurea cyanus: 50%
(Z90) 28 DAT, g a.i./ha: r586 16, r587 30
  Herbicidal action against Lamium purpureum L.: 10%
(Z90) 28 DAT, g a.i./ha: r594 16, r595 30
  Herbicidal action against Lolium rigidum: 0%
(Z90) 28 DAT, g a.i./ha: r602 4, r603 90
  Herbicidal action against Matricaria inodora: 10%
(Z90) 28 DAT, g a.i./ha: r624 4, r625 270
  Herbicidal action against Viola tricolor: 40%
(Z119) 14 DAT, g a.i./ha: r632 16, r633 4, r634 30, r635 270
  Herbicidal action against Alopecurus myosuroides: 20%
(Z119) 14 DAT, g a.i./ha: r682 16, r683 30
  Herbicidal action against Lolium rigidum: 10%
(Z119) 14 DAT, g a.i./ha: r709 4, r710 270
  Herbicidal action against Phalaris minor: 20%
(Z119) 14 DAT, g a.i./ha: r729 4, r730 270
  Herbicidal action against Poa annua L.: 20%
(Z119) 28 DAT, g a.i./ha: r654 16, r655 30
  Herbicidal action against Centaurea cyanus: 10%
(Z119) 28 DAT, g a.i./ha: r662 1, r663 270
  Herbicidal action against Galium aparine: 20%
(Z119) 28 DAT, g a.i./ha: r690 16, r691 30
  Herbicidal action against Lolium rigidum: 0%
Z61 28 DAT, g a.i./ha: r459 30, r460 15
  Herbicidal action against Abutilon theophrasti: 10%
Z61 28 DAT, g a.i./ha: r479 30, r480 1.7
  Herbicidal action against Brachiaria platyphylla: 10%
Z61 28 DAT, g a.i./ha: r487 270, r488 5
  Herbicidal action against Eleusine indica: 20%

## CP(=O)(O)CCC(N)C(=O)O (centres unmarked) [(B7.4) Glufosinate]
post-emergence, single active compound (A2 series), g a.i./ha: r337 150, r339 5
  Herbicidal action 28 DAT [%] against Eleusine indica: 50%
post-emergence, single active compound (A2 series), g a.i./ha: r347 50, r349 5
  Herbicidal action 28 DAT [%] against Kochia scoparia: 10%
post-emergence, single active compound (A2 series), g a.i./ha: r357 50, r359 5
  Herbicidal action 28 DAT [%] against Polygonum convulvulus: 30%
post-emergence, single active compound (A3 series), g a.i./ha: r384 50, r386 45, r387 15, r388 5
  Herbicidal action 28 DAT [%] against Kochia scoparia: 10%
post-emergence, single active compound (A4 series), g a.i./ha: r479 16, r480 4, r481 1, r482 150
  Herbicidal action in [%] 14 DAT against Galium aparine: 30%
post-emergence, single active compound (A4 series), g a.i./ha: r491 16, r492 50
  Herbicidal action in [%] 28 DAT against Galium aparine: 30%
post-emergence, single active compound (A4 series), g a.i./ha: r501 4, r502 1, r503 450
  Herbicidal action in [%] 14 DAT against Lamium purpureum L.: 80%
post-emergence, single active compound (A4 series), g a.i./ha: r512 4, r513 1, r514 450
  Herbicidal action in [%] 28 DAT against Lamium purpureum L.: 60%
post-emergence, single active compound (A4 series), g a.i./ha: r523 1, r524 450
  Herbicidal action in [%] 28 DAT against Lolium rigidum (resistant bio type): 20%
post-emergence, single active compound (A4 series), g a.i./ha: r533 16, r534 450
  Herbicidal action in [%] 14 DAT against Poa annua L.: 40%
post-emergence, single active compound (A5 series), g a.i./ha: r617 4, r618 450
  Herbicidal action in [%] 28 DAT against Bromus sterilis: 10%
post-emergence, single active compound (A5 series), g a.i./ha: r627 16, r628 1, r629 450, r630 150
  Herbicidal action in [%] 14 DAT against Centaurea cyanus: 70%
post-emergence, single active compound (A5 series), g a.i./ha: r649 1, r650 150
  Herbicidal action in [%] 14 DAT against Galium aparine: 30%
post-emergence, single active compound (A5 series), g a.i./ha: r659 1, r660 450
  Herbicidal action in [%] 14 DAT against Lamium purpureum L.: 80%
post-emergence, single active compound (A5 series), g a.i./ha: r669 1, r670 450
  Herbicidal action in [%] 28 DAT against Lamium purpureum L.: 60%
post-emergence, single active compound, g a.i./ha: r40 50, r42 15, r43 5
  Herbicidal action 28 DAT [%] against Setaria faberi: 10%
post-emergence, single active compound, g a.i./ha: r51 50, r53 15, r54 5, r55 1.67
  Herbicidal action 28 DAT [%] against Setaria viridis: 10%
post-emergence, single active compound, g a.i./ha: r77 450, r79 15, r80 5
  Herbicidal action 28 DAT [%] against Abutilon theophrasti: 90%
post-emergence, single active compound, g a.i./ha: r88 150, r89 50, r90 45, r91 15, r92 5
  Herbicidal action 28 DAT [%] against Euphorbia heterophylla: 15%
post-emergence, single active compound, g a.i./ha: r172 5, r173 1.67, r174 450
  Herbicidal action 28 DAT [%] against Bromus sterilis: 30%
post-emergence, single active compound, g a.i./ha: r183 5, r184 50
  Herbicidal action 28 DAT [%] against Galium aparine: 0%
post-emergence, single active compound, g a.i./ha: r204 45, r205 50
  Herbicidal action 28 DAT [%] against Lamium purpureum: 50%
post-emergence, single active compound, g a.i./ha: r214 15, r215 150, r216 50
  Herbicidal action 28 DAT [%] against Lolium rigidum (sensitive biotype): 0%
post-emergence, single active compound, g a.i./ha: r224 15, r225 5, r226 150, r227 50
  Herbicidal action 28 DAT [%] against Lolium rigidum (resistant biotype): 0%
post-emergence, single active compound, g a.i./ha: r292 5, r293 150
  Herbicidal action 28 DAT [%] against Veronica hederifolia: 70%
post-emergence, single active compound, g a.i./ha: r314 50, r316 15, r317 5, r318 1.7
  Herbicidal action 28 DAT [%] against Brachiaria platyphylla: 30%
post-emergence, single active compound, g a.i./ha: r396 50, r398 5
  Herbicidal action 28 DAT [%] against Pharbitis purpurea: 40%
post-emergence, single active compound, g a.i./ha: r721 16, r722 450
  Herbicidal action in [%] 28 DAT against Poa annua L.: 30%
